In PubChem BioAssay (NCI):
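Five concentrations, 48 hours, 96-well plates. TGI marks complete inhibition of growth.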

What was measured:
Assay in all cases: NCI tumour cell line growth inhibition, 48 h
DU-145 prostate = test system: DU-145 prostate
NCI/ADR-RES ovarian = test system: NCI/ADR-RES ovarian
SN12C renal = test system: SN12C renal
MDA-MB-435 = test system: MDA-MB-435
U251 CNS = test system: U251 CNS
TK-10 renal = test system: TK-10 renal
K-562 leukemia = test system: K-562 leukemia
OVCAR-8 ovarian = test system: OVCAR-8 ovarian
HCT-116 colon = test system: HCT-116 colon
SR leukemia = test system: SR leukemia
SW-620 colon = test system: SW-620 colon
M14 melanoma = test system: M14 melanoma
MCF7 breast = test system: MCF7 breast
UACC-62 melanoma = test system: UACC-62 melanoma
A549 NSCLC = test system: A549 NSCLC
SK-MEL-28 melanoma = test system: SK-MEL-28 melanoma
SK-OV-3 ovarian = test system: SK-OV-3 ovarian
786-0 renal = test system: 786-0 renal
OVCAR-4 ovarian = test system: OVCAR-4 ovarian
NCI-H226 lung = test system: NCI-H226 lung
SNB-75 CNS = test system: SNB-75 CNS
HS 578T breast = test system: HS 578T breast
SF-295 CNS = test system: SF-295 CNS
MDA-N = test system: MDA-N
NCI-H460 lung = test system: NCI-H460 lung
SNB-19 CNS = test system: SNB-19 CNS
EKVX NSCLC = test system: EKVX NSCLC
SF-268 CNS = test system: SF-268 CNS
COLO 205 colon = test system: COLO 205 colon
RXF 393 renal = test system: RXF 393 renal
NCI-H522 lung = test system: NCI-H522 lung
MALME-3M melanoma = test system: MALME-3M melanoma
ACHN renal = test system: ACHN renal
SK-MEL-5 melanoma = test system: SK-MEL-5 melanoma
UACC-257 melanoma = test system: UACC-257 melanoma
MOLT-4 leukemia = test system: MOLT-4 leukemia
OVCAR-5 ovarian = test system: OVCAR-5 ovarian
IGROV1 ovarian = test system: IGROV1 ovarian
OVCAR-3 ovarian = test system: OVCAR-3 ovarian
T-47D breast = test system: T-47D breast
A498 renal = test system: A498 renal
BT-549 breast = test system: BT-549 breast
PC-3 prostate = test system: PC-3 prostate
KM12 colon = test system: KM12 colon
HCT-15 colon = test system: HCT-15 colon
CAKI-1 renal = test system: CAKI-1 renal
LOX IMVI melanoma = test system: LOX IMVI melanoma
UO-31 renal = test system: UO-31 renal
MDA-MB-231 breast = test system: MDA-MB-231 breast
SK-MEL-2 melanoma = test system: SK-MEL-2 melanoma
HOP-62 NSCLC = test system: HOP-62 NSCLC
HL-60(TB) leukemia = test system: HL-60(TB) leukemia
HOP-92 NSCLC = test system: HOP-92 NSCLC
HT29 colon = test system: HT29 colon
HCC-2998 colon = test system: HCC-2998 colon
SF-539 CNS = test system: SF-539 CNS
NCI-H23 lung = test system: NCI-H23 lung
CCRF-CEM leukemia = test system: CCRF-CEM leukemia

## COC(=O)[C@H](Cc1c[nH]c2ccccc12)NC(=O)c1ccccc1I
DU-145 prostate
  TGI: 53.9 µM
NCI/ADR-RES ovarian
  TGI: > 100 µM
SN12C renal
  TGI: > 100 µM
MDA-MB-435
  TGI: 84.5 µM
U251 CNS
  TGI: > 100 µM
TK-10 renal
  TGI: 77.3 µM
K-562 leukemia
  TGI: > 100 µM
OVCAR-8 ovarian
  TGI: > 100 µM
HCT-116 colon
  TGI: > 100 µM
SR leukemia
  TGI: 58.7 µM
SW-620 colon
  TGI: > 100 µM
M14 melanoma
  TGI: 32.4 µM
MCF7 breast
  TGI: > 100 µM
UACC-62 melanoma
  TGI: 34.1 µM
A549 NSCLC
  TGI: > 100 µM
SK-MEL-28 melanoma
  TGI: > 100 µM
SK-OV-3 ovarian
  TGI: > 100 µM
786-0 renal
  TGI: 34.6 µM
OVCAR-4 ovarian
  TGI: > 100 µM
NCI-H226 lung
  TGI: 82.2 µM
SNB-75 CNS
  TGI: 32.4 µM
HS 578T breast
  TGI: 29.8 µM
SF-295 CNS
  TGI: > 100 µM
MDA-N
  TGI: 42.6 µM
NCI-H460 lung
  TGI: > 100 µM
SNB-19 CNS
  TGI: > 100 µM
EKVX NSCLC
  TGI: > 100 µM
SF-268 CNS
  TGI: 47 µM
COLO 205 colon
  TGI: 33.3 µM
RXF 393 renal
  TGI: 39.8 µM
NCI-H522 lung
  TGI: 30.9 µM
MALME-3M melanoma
  TGI: 35.8 µM
ACHN renal
  TGI: 30.8 µM
SK-MEL-5 melanoma
  TGI: 29.6 µM
UACC-257 melanoma
  TGI: 35.1 µM
MOLT-4 leukemia
  TGI: 56.9 µM
OVCAR-5 ovarian
  TGI: > 100 µM
IGROV1 ovarian
  TGI: > 100 µM
OVCAR-3 ovarian
  TGI: 33.1 µM
T-47D breast
  TGI: 76.2 µM
A498 renal
  TGI: 37.4 µM
BT-549 breast
  TGI: > 100 µM
PC-3 prostate
  TGI: 59.3 µM
KM12 colon
  TGI: > 100 µM
HCT-15 colon
  TGI: > 100 µM
CAKI-1 renal
  TGI: 50.6 µM
LOX IMVI melanoma
  TGI: 44.8 µM
UO-31 renal
  TGI: 33.4 µM
MDA-MB-231 breast
  TGI: > 100 µM
SK-MEL-2 melanoma
  TGI: 45.8 µM
HOP-62 NSCLC
  TGI: > 100 µM
HL-60(TB) leukemia
  TGI: 54 µM
HOP-92 NSCLC
  TGI: 35.2 µM
HT29 colon
  TGI: > 100 µM
HCC-2998 colon
  TGI: 82.6 µM

## CCN(CC)c1nc(NC2CCCCC2)c2nc(N(CC)CC)nc(NC3CCCCC3)c2n1
DU-145 prostate
  TGI: > 100 µM
NCI/ADR-RES ovarian
  TGI: > 100 µM
SN12C renal
  TGI: > 100 µM
SF-539 CNS
  TGI: > 100 µM
MDA-MB-435
  TGI: > 100 µM
U251 CNS
  TGI: > 100 µM
TK-10 renal
  TGI: > 100 µM
K-562 leukemia
  TGI: > 100 µM
OVCAR-8 ovarian
  TGI: > 100 µM
HCT-116 colon
  TGI: > 100 µM
SR leukemia
  TGI: > 100 µM
SW-620 colon
  TGI: > 100 µM
M14 melanoma
  TGI: > 100 µM
MCF7 breast
  TGI: > 100 µM
UACC-62 melanoma
  TGI: > 100 µM
A549 NSCLC
  TGI: > 100 µM
SK-MEL-28 melanoma
  TGI: > 100 µM
SK-OV-3 ovarian
  TGI: > 100 µM
NCI-H23 lung
  TGI: > 100 µM
786-0 renal
  TGI: > 100 µM
NCI-H226 lung
  TGI: > 100 µM
HS 578T breast
  TGI: > 100 µM
SF-295 CNS
  TGI: > 100 µM
MDA-N
  TGI: > 100 µM
NCI-H460 lung
  TGI: > 100 µM
SNB-19 CNS
  TGI: > 100 µM
EKVX NSCLC
  TGI: > 100 µM
SF-268 CNS
  TGI: > 100 µM
RXF 393 renal
  TGI: 99.8 µM
MALME-3M melanoma
  TGI: > 100 µM
CCRF-CEM leukemia
  TGI: > 100 µM
ACHN renal
  TGI: > 100 µM
SK-MEL-5 melanoma
  TGI: > 100 µM
MOLT-4 leukemia
  TGI: > 100 µM
OVCAR-5 ovarian
  TGI: > 100 µM
IGROV1 ovarian
  TGI: > 100 µM
OVCAR-3 ovarian
  TGI: > 100 µM
T-47D breast
  TGI: > 100 µM
A498 renal
  TGI: > 100 µM
BT-549 breast
  TGI: > 100 µM
PC-3 prostate
  TGI: > 100 µM
KM12 colon
  TGI: > 100 µM
HCT-15 colon
  TGI: > 100 µM
MDA-MB-231 breast
  TGI: > 100 µM
HOP-62 NSCLC
  TGI: > 100 µM
HL-60(TB) leukemia
  TGI: > 100 µM
HOP-92 NSCLC
  TGI: > 100 µM
HT29 colon
  TGI: > 100 µM
HCC-2998 colon
  TGI: > 100 µM
